Experimental data as given in US20080249074A1, “Composition for the Transdermal Administration of Physiologically Active Agents” (LABORATORIOS BELMAC, S.A., priority 2005, published 2008).

System: carrageenan-induced rat paw plantar edema
Test: Anti-inflammatory effect of oleuropein compositions in the form of an oil
Type: in vivo
Conditions: for increase % vs. V0 / inhibition % vs. blank-vehicle / increase vs. V0 % / inhibition vs. blank-vehicle %: topical; for increase % vs. V0 / inhibition % vs. blank-vehicle: V1, 60 minutes; for increase vs. V0 % / inhibition vs. blank-vehicle %: V2, 180 minutes
Procedure: The test was performed according to the method disclosed by Winter et al. (Proc. Soc. Exp. Biol. Med. 1962; vol. 111, pp. 544-547), adapted to the rat paw. The method consisted in the injection of 100 μl of a 0.75% carrageenan solution in physiological saline in the plantar face of the left hind paw of the rat. The volume of the paws was determined by a plethysmometer just before the injection of the carrageenan (V0), 60 minutes after the injection (V1) and 180 minutes (V2) after the injection.
The tested substances were administered topically according to a modification of the method disclosed by Mass6 et al. (Rev. Farmacol. Clin. Exp. 1990, vol. 7, p. 85), following a blind and randomized trial. 100 μl of the substance to be tested were applied over the paw of the animal, spread over the whole surface of the paw, massaging until the complete absorption. The application was repeated 2 times, namely 18 h before the injection of carrageenan and 60 minutes before said injection. Simultaneously to the application, 30 ml/kg of distilled water were administered orally.
Using the method described in Example 7, the anti-inflammatory effect of the four compositions in the form of an oil prepared according to Example 1, which comprised a 0.1%, 0.2%, 0.4%, and 0.8% of oleuropein w/w, respectively, was studied. The blank-vehicle was prepared by the same method as the compositions tested excluding the active ingredient.
The mean±S.E.M. of the volumes of the animal paws was calculated for the three observation periods V0, V1 and V2. The average values of every experimental group were used for the determination of the average increase of the volume of the paws as an effect of the injection of carrageenan during the periods of observation V1 and V2 with regard to the initial volume (V0), and, then, the percentages of the variation of said values with regard to the blank-vehicle group were determined. Finally, the 50% Effective Concentration (EC 50) was calculated through a linear regression optimized by the least squares method. The evaluation of the statistic signification of the variation was performed by the Student's t-test for independent data using a p<0.05 level to establish the difference criteria. […] However, as estimation, it is obtained that EC 50 of the oleuropein composition in the form of an oil is about 0.7%.

C/C=C1/[C@H](O[C@@H]2O[C@H](CO)[C@@H](O)[C@H](O)[C@H]2O)OC=C(C(=O)OC)[C@H]1CC(=O)OCCc1ccc(O)c(O)c1 [Oleuropein, oleuropein]
increase % vs. V0 (0.1% (w/w) oleuropein oil): 27.39%
inhibition % vs. blank-vehicle (0.1% (w/w) oleuropein oil): 14.62%
increase vs. V0 % (0.1% (w/w) oleuropein oil): 43.59%
inhibition vs. blank-vehicle % (0.1% (w/w) oleuropein oil): 12.38%
increase % vs. V0 (0.2% (w/w) oleuropein oil): 24.75%
inhibition % vs. blank-vehicle (0.2% (w/w) oleuropein oil): 22.86%
increase vs. V0 % (0.2% (w/w) oleuropein oil): 36.80%
inhibition vs. blank-vehicle % (0.2% (w/w) oleuropein oil): 26.03%
increase % vs. V0 (0.4% (w/w) oleuropein oil): 18.55%
inhibition % vs. blank-vehicle (0.4% (w/w) oleuropein oil): 42.19%
increase vs. V0 % (0.4% (w/w) oleuropein oil): 26.80%
inhibition vs. blank-vehicle % (0.4% (w/w) oleuropein oil): 46.13%
increase % vs. V0 (0.8% (w/w) oleuropein oil): 16.13%
inhibition % vs. blank-vehicle (0.8% (w/w) oleuropein oil): 49.73%
increase vs. V0 % (0.8% (w/w) oleuropein oil): 25.71%
inhibition vs. blank-vehicle % (0.8% (w/w) oleuropein oil): 48.31%
maximum estimated effect, inhibition (oily composition of oleuropein): about 50%
concentration up to which the effect is lineal (oleuropein concentration in the oil composition): about 0.4%
50% Effective Concentration (EC 50) (oleuropein concentration in the oil composition, linear regression by least squares, estimation): about 0.7%
